# According to patent US20250320248A1, “MENAQUINONE-BINDING COMPOUNDS AND METHODS OF USE THEREOF” (The Rockefeller University, priority 2021, published 2025):
# Starred links: 1 amine or outer side, 2 acyl side, 3 side chain; linkers in the order of their positions; H or OH if unused. Positions of bridges follow the written chain, without caps; N, C: chain ends. Non-standard residues stand in square brackets, D forms with d. Residues, ends and D or L forms follow the SMILES beside them. X1 = CCCCC[C@H](CC(=O)[*:1])O[*:2]; GABA = NCCCC(=O)O
# Columns and labels:
# [1] = Isothermal titration calorimetry, DOPC:DOPG liposomes containing MK; format: binding
# Procedure: (§1) For MK and UQ binding, a 1:1 mixture of 1,2-dioleoyl-sn-glycero-3-phosphocholine (DOPC) and 1,2-dioleoyl-sn-glycero-3-phospho-rac-(1-glycerol) (DOPG) containing either 1.25 mol % MK4 or UQ10 was dissolved in chloroform. A lipid film was generated by drying this material under a stream of nitrogen followed by 2 h of vacuum drying. The resulting film was hydrated using 10 mM HEPES (pH 7.5) with 100 mM NaCl to give a final total lipid concentration of 5 mM. Using an Avanti Mini Extruder, this suspension was passed through a 100 nm polycarbonate filter 10 times. For ITC the sample cell was filled with 400 μL of 25 μM MBA prepared in 10 mM HEPES buffer. The syringe (150 μL) was loaded with a 5 mM lipid suspension with 1.25 mol % MK4 or UQ10. For lipid II binding, 10 mM DOPC containing 1 mol % lipid II was dissolved in chloroform. The resulting film was hydrated using 50 mM Tris (pH 7.5) with 100 mM NaCl and passed through a 100 nm polycarbonate filter 10 times. For ITC the sample cell was filled with 400 μL of 25 μM an MBA prepared in 50 mM Tris buffer. The syringe (150 μL) was loaded with a 10 mM DOPC suspension with 1 mol % lipid II. Data were collected by using an Auto-iTC200 (Malvern Panalytical) and processed by Affinimeter software using the “one binding site” model.
# [2] = Isothermal titration calorimetry, DOPC liposomes containing lipid II; format: binding
# Procedure: as §1
# [3] = system: methicillin-resistant S. aureus COL; test: Mouse peritonitis-sepsis model; settings: single subcutaneous dose 1 h after infection
# Procedure: Female outbred Swiss Webster mice were used in all experiments. S. aureus COL was grown in Mueller-Hinton Broth at 37° C. overnight and diluted with 7% type II porcine stomach mucin supplemented with 0.2 mM FeNH4-citrate. Cultures were diluted to provide a challenge inoculum of ˜5×10^8 CFU in 0.2 mL. 0.2 mL of the challenge inoculum was administered via intraperitoneal injection.
# [4] = system: Mtb mc2 6206/mLux in J774A.1 mouse macrophages; format: cell-based, Mycobacterium tuberculosis
# [5] = system: Mycobacterium tuberculosis
# [6] = system: Gram-positive bacteria (Bacillus subtilis, Staphylococcus aureus and Staphylococcus epidermidis); test: Antibacterial activity against Gram-positive bacteria (broth micro-dilution); format: cell-based
# Procedure: (§2) All antimicrobial assays were run in 96-well microtiter plates using a broth micro-dilution method. Diluted overnight cultures were used in all assays. For yeast strains, overnight cultures were diluted 2000-fold in YPD broth. For Enterococcus faecium and Staphylococcus aureus, overnight cultures were diluted 1000- and 10,000-fold in LB broth, respectively. For Streptococcus strains, overnight cultures were diluted 5,000-fold in Brain Heart Infusion (BHI) broth. For other bacteria, overnight cultures were diluted 5,000-fold in LB broth. 100 μL of each diluted culture was mixed with 100 μL of LB broth containing a syn-BNP at 2-fold serial dilutions across a 96-well microtiter plate row. The final concentration of each compound ranged from 64 to 0.25 μg/mL. Plates were incubated at 37° C. (bacteria) or 30° C. (yeast) for 16 h. The lowest concentration that inhibited visible microbial growth was recorded as the minimum inhibition concentration (MIC). All MIC assays were done in duplicate (n=2).
# S. aureus tn:hemB = test: MIC against S. aureus hemB transposon insertion mutant; format: cell-based, Staphylococcus aureus
# Procedure: All antimicrobial assays were run in 96-well microtiter plates using a broth micro-dilution method. Diluted overnight cultures were used in all assays. […] For Enterococcus faecium and Staphylococcus aureus, overnight cultures were diluted 1000- and 10,000-fold in LB broth, respectively. […] For other bacteria, overnight cultures were diluted 5,000-fold in LB broth. 100 μL of each diluted culture was mixed with 100 μL of LB broth containing a syn-BNP at 2-fold serial dilutions across a 96-well microtiter plate row. The final concentration of each compound ranged from 64 to 0.25 μg/mL. Plates were incubated at 37° C. (bacteria) or 30° C. (yeast) for 16 h. The lowest concentration that inhibited visible microbial growth was recorded as the minimum inhibition concentration (MIC). All MIC assays were done in duplicate (n=2).
# [7] = system: Enterococcus or Streptococcus strains; test: MIC against all eight Enterococcus or Streptococcus strains; format: cell-based; settings: MK-producing and MK-deficient
# Procedure: as §2
# Mycobacterium smegmatis = settings: reported in literature; cited from earlier work
molecule,measurement,setting,value
CCCCC[C@@H]1CC(=O)N[C@@H](C(C)C)C(=O)N[C@H](CCCNC(=N)N)C(=O)N[C@@H](C(C)C)C(=O)NCC(=O)N2CCC[C@H]2C(=O)N[C@@H](CC(C)C)C(=O)N[C@H](CCCNC(=N)N)C(=O)N[C@@H](CCC(=O)O)C(=O)N[C@H](Cc2ccc(O)cc2)C(=O)N[C@H](C)C(=O)NCCCC(=O)O1 [MBA3 D-Trp-10 to D-Ala] (V[dR]VGPL[dR]E[dY][dA][GABA]; linker N-C via X1),ability to interact with MK,[1],completely abrogated
same,lipid II binding,[2],no lipid II binding or similarly low lipid II binding affinities
CCCCC[C@@H]1CC(=O)N[C@@H](C(C)C)C(=O)N[C@H](CCCNC(=N)N)C(=O)N[C@@H](C(C)C)C(=O)N[C@@H](C)C(=O)N2CCC[C@H]2C(=O)N[C@@H](CC(C)C)C(=O)N[C@H](CCCNC(=N)N)C(=O)N[C@@H](CCC(=O)O)C(=O)N[C@H](Cc2ccc(O)cc2)C(=O)N[C@H](Cc2c[nH]c3ccccc23)C(=O)NCCCC(=O)O1 [MBA3 Gly-4 to L-Ala] (V[dR]VAPL[dR]E[dY][dW][GABA]; linker N-C via X1),ability to interact with MK,[1],completely abrogated
"CCCCC[C@@H]1CC(=O)N[C@@H](C(C)C)C(=O)N[C@H](CCCNC(=N)N)C(=O)N[C@@H](C(C)C)C(=O)NCC(=O)N2CCC[C@H]2C(=O)N[C@@H](CC(C)C)C(=O)N[C@H](CCCNC(=N)N)C(=O)N[C@@H](CCC(=O)O)C(=O)N[C@H](Cc2ccc(O)cc2)C(=O)N[C@H](Cc2c[nH]c3ccccc23)C(=O)NCCCC(=O)O1 [MBA3, metameb] (V[dR]VGPL[dR]E[dY][dW][GABA]; linker N-C via X1)",mortality of infected mice compared to vehicle,"[3]; 5, 10 and 30 mg/kg",dramatically decreased
same,minimal dose required for 100% survival,[3],10 mg/kg
same,relative potency in macrophage assay,[4],most potent
same,activity against Mtb,[5],active
same,MIC,[5]; lowest MIC against MDR Mtb,≥ 0.078 µg/mL
same,antibacterial activity against Gram-positive bacteria,[6],good Gram-positive antibiosis
same,lipid II binding,[2],no lipid II binding or similarly low lipid II binding affinities
"CCCCC[C@@H]1CC(=O)N[C@@H](C(C)C)C(=O)N[C@H](CCC(=O)O)C(=O)N[C@@H](CCCNC(=N)N)C(=O)NCC(=O)N2CCC[C@H]2C(=O)N[C@@H](CC(C)C)C(=O)N[C@H](CCC(N)=O)C(=O)N[C@@H](CCC(=O)O)C(=O)N[C@H](Cc2ccc(O)cc2)C(=O)N[C@H](Cc2c[nH]c3ccccc23)C(=O)NCCCC(=O)O1 [MBA4, alcameb] (V[dE]RGPL[dQ]E[dY][dW][GABA]; linker N-C via X1)",antibacterial activity against Gram-positive bacteria,[6],good Gram-positive antibiosis
CN[C@H](CC(C)C)C(=O)N[C@H]1C(=O)N[C@@H](CC(N)=O)C(=O)N[C@H]2C(=O)N[C@H]3C(=O)N[C@H](C(=O)N[C@H](C(=O)O)c4cc(O)cc(O)c4-c4cc3ccc4O)[C@H](O)c3ccc(c(Cl)c3)Oc3cc2cc(c3O[C@@H]2O[C@H](CO)[C@@H](O)[C@H](O)[C@H]2O[C@H]2C[C@](C)(N)[C@H](O)[C@H](C)O2)Oc2ccc(cc2Cl)[C@H]1O [vancomycin],MIC difference between wild-type S. aureus and tn:hemB strain,S. aureus tn:hemB,no significant differences in MIC
same,antibacterial activity,[7],active
lysobactin,MIC difference between wild-type S. aureus and tn:hemB strain,S. aureus tn:hemB,no significant differences in MIC
same,antibacterial activity,[7],active
lysocin E,activity against Mycobacterium smegmatis,Mycobacterium smegmatis,active
nisin,MIC difference between wild-type S. aureus and tn:hemB strain,S. aureus tn:hemB,no significant differences in MIC
same,antibacterial activity,[7],active
same,Kd,[2]; read-out: lipid II binding affinity Kd,70 nM
ramoplanin,MIC difference between wild-type S. aureus and tn:hemB strain,S. aureus tn:hemB,no significant differences in MIC
same,antibacterial activity,[7],active
